Data reported in PubChem BioAssay AID330 (DTP/NCI, 2004).
“And” between values parts separate entries of the source, which are not always exact repeats. Equal values may be shown once. Inconclusive results and toxic doses are left out. Rule for the calls: active = survival T/C of 150% or more; inactive = T/C below 125% in these data.

System: P388 leukemia ip, CD2F1 mice, survival T/C
Experiment: NCI In Vivo Anticancer Drug Screen. Data for tumor model P388 Leukemia (intraperitoneal) in CD2F1 (CDF1) mice
Details: endpoint: median survival time, higher = longer survival
In short: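 Mice carrying the transplanted tumor received test compound or vehicle. Survival was recorded in each group, and the value is the treated-group measurement divided by that of the vehicle-treated control group.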

[1] = dose: 50.0 mg/kg/injection, schedule: Q04DX003 (ip), vehicle: saline
[2] = dose: 50.0 mg/kg/injection, schedule: Q01DX009 (ip), vehicle: saline with Tween-80
[3] = dose: 100.0 mg/kg/injection, schedule: Q01DX009 (ip), vehicle: saline with Tween-80
[4] = dose: 50.0 mg/kg/injection, schedule: Q01DX009 (ip), vehicle: saline
[5] = dose: 100.0 mg/kg/injection, schedule: Q01DX009 (ip), vehicle: saline
[6] = dose: 200.0 mg/kg/injection, schedule: Q01DX009 (ip), vehicle: saline
[7] = dose: 60.0 mg/kg/injection, schedule: Q01DX005 (ip), vehicle: saline with Tween-80
[8] = dose: 120.0 mg/kg/injection, schedule: Q01DX005 (ip), vehicle: saline with Tween-80
[9] = dose: 240.0 mg/kg/injection, schedule: Q01DX005 (ip), vehicle: saline with Tween-80
[10] = dose: 100.0 mg/kg/injection, schedule: Q04DX003 (ip), vehicle: saline with Tween-80
[11] = dose: 200.0 mg/kg/injection, schedule: Q04DX003 (ip), vehicle: saline with Tween-80
[12] = dose: 400.0 mg/kg/injection, schedule: Q04DX003 (ip), vehicle: saline with Tween-80

Measured: T/C

CS(=O)(=O)O/C=C1\CCc2ccccc2C1=O
inactive: dose: 50.0 mg/kg/injection, schedule: Q01DX005 (ip), vehicle: saline with Tween-80 98 % of control | dose: 100.0 mg/kg/injection, schedule: Q01DX005 (ip), vehicle: saline with Tween-80 98 % of control | dose: 200.0 mg/kg/injection, schedule: Q01DX005 (ip), vehicle: saline with Tween-80 105 % of control

CC[N+](C)(CC)CC(C)C1NS(=O)(=O)c2ccccc21 (stereo not drawn)
inactive: dose: 25.0 mg/kg/injection, schedule: Q04DX003 (ip), vehicle: saline 104 % of control | [1] 98 % of control | dose: 100.0 mg/kg/injection, schedule: Q04DX003 (ip), vehicle: saline 98 % of control and 100 % of control

CCSC(C(O)C(O)C(O)C(O)CO)n1cnc2c(SC)ncnc21 (stereo not drawn)
inactive: dose: 25.0 mg/kg/injection, schedule: Q01DX009 (ip), vehicle: water 99 % of control | dose: 50.0 mg/kg/injection, schedule: Q01DX009 (ip), vehicle: water 95 % of control | dose: 100.0 mg/kg/injection, schedule: Q01DX009 (ip), vehicle: water 94 % of control | dose: 200.0 mg/kg/injection, schedule: Q01DX009 (ip), vehicle: water 99 % of control | dose: 400.0 mg/kg/injection, schedule: Q01DX009 (ip), vehicle: water 97 % of control

O=C(c1ccc2c(c1)OCO2)N1OC2C=CC1CC2 (stereo not drawn)
inactive: [2] 98 % of control | [3] 96 % of control | dose: 200.0 mg/kg/injection, schedule: Q01DX009 (ip), vehicle: saline with Tween-80 98 % of control

NS(=O)(=O)c1cc(Cl)cc(Cl)c1O
inactive: [2] 100 % of control | [3] 120 % of control

CC(C)N=Cc1ccccc1O.CC(C)N=Cc1ccccc1O.[Zn]
inactive: dose: 25.0 mg/kg/injection, schedule: Q04DX003 (ip), vehicle: saline sonified 100 % of control | dose: 50.0 mg/kg/injection, schedule: Q04DX003 (ip), vehicle: saline sonified 100 % of control | dose: 100.0 mg/kg/injection, schedule: Q04DX003 (ip), vehicle: saline sonified 104 % of control

COC(=O)C1=CN2CCc3c([nH]c4ccccc34)C2(C)C2CN3CCc4c([nH]c5ccccc45)C3CC12 (stereo not drawn)
inactive: dose: 2.25 mg/kg/injection, schedule: Q01DX009 (ip), vehicle: Klucel (hydroxypropylcellulose) (HPC) 98 % of control | dose: 4.5 mg/kg/injection, schedule: Q01DX009 (ip), vehicle: Klucel (hydroxypropylcellulose) (HPC) 106 % of control | dose: 9.0 mg/kg/injection, schedule: Q01DX009 (ip), vehicle: Klucel (hydroxypropylcellulose) (HPC) 113 % of control | dose: 18.0 mg/kg/injection, schedule: Q01DX009 (ip), vehicle: Klucel (hydroxypropylcellulose) (HPC) 92 % of control | dose: 36.0 mg/kg/injection, schedule: Q01DX009 (ip), vehicle: Klucel (hydroxypropylcellulose) (HPC) 98 % of control

Nc1ccc2cc3ccc(N)cc3nc2c1
inactive: dose: 12.5 mg/kg/injection, schedule: Q01DX009 (ip), vehicle: saline 122 % of control | dose: 15.0 mg/kg/injection, schedule: Q01DX005 (ip), vehicle: saline 109 % of control | [4] 95 % of control | [1] 86 % of control

CNC(=O)OCc1c(C)sc(-c2ccccc2)c1COC(=O)NC
inactive: dose: 12.5 mg/kg/injection, schedule: Q01DX005 (ip), vehicle: distilled water + Tween-80 93 % of control | dose: 25.0 mg/kg/injection, schedule: Q01DX005 (ip), vehicle: distilled water + Tween-80 95 % of control | dose: 50.0 mg/kg/injection, schedule: Q01DX005 (ip), vehicle: distilled water + Tween-80 98 % of control | dose: 100.0 mg/kg/injection, schedule: Q01DX005 (ip), vehicle: distilled water + Tween-80 86 % of control

O=C1CSC(c2ccccc2Cl)N1c1n[nH]c(=S)s1 (stereo not drawn)
inactive: dose: 100.0 mg/kg/injection, schedule: Q04DX002 (ip), vehicle: Klucel (hydroxypropylcellulose) (HPC) 98 % of control | dose: 200.0 mg/kg/injection, schedule: Q04DX002 (ip), vehicle: Klucel (hydroxypropylcellulose) (HPC) 100 % of control | dose: 400.0 mg/kg/injection, schedule: Q04DX002 (ip), vehicle: Klucel (hydroxypropylcellulose) (HPC) 97 % of control

CN1CN=C(Sc2ccc(Cl)cc2[N+](=O)[O-])NC1
inactive: [4] 89 % of control | [5] 100 % of control | [6] 104 % of control

CCCCCCCCCCCC(=O)Nc1ncc([N+](=O)[O-])s1
inactive: dose: 50.0 mg/kg/injection, schedule: Q01DX009 (ip), vehicle: Klucel (hydroxypropylcellulose) (HPC) 101 % of control | dose: 100.0 mg/kg/injection, schedule: Q01DX009 (ip), vehicle: Klucel (hydroxypropylcellulose) (HPC) 102 % of control | dose: 200.0 mg/kg/injection, schedule: Q01DX009 (ip), vehicle: Klucel (hydroxypropylcellulose) (HPC) 106 % of control

O=C(/C=C/c1ccccc1)NC1C=Nc2ccc(Cl)cc2NC1=O (stereo not drawn)
inactive: [7] 97 % of control | [8] 95 % of control | [9] 97 % of control

CCOC(=O)c1c(=O)[nH]c(=O)n2c1[nH]c1ccccc12
inactive: [7] 93 % of control | [8] 91 % of control | [9] 90 % of control

CC1C(=O)C(C)C(c2ccccc2Cl)OC1c1ccccc1Cl (stereo not drawn)
inactive: [4] 112 % of control | [5] 102 % of control | [6] 96 % of control

C=C1C(=O)OC2C1CCC(=C)C1CC(OC3OC(CO)C(O)C(O)C3O)C(=C)C12 (stereo not drawn)
inactive: dose: 50.0 mg/kg/injection, schedule: Q04DX003 (ip), vehicle: saline with Tween-80 93 % of control | [10] 105 % of control and 86 % of control | [11] 104 % of control | [12] 104 % of control and 124 % of control

CC1=CC(=C2C=CC(=[N+](C)C)C=C2)C=C(C)S1
inactive: dose: 3.12 mg/kg/injection, schedule: Q01DX009 (ip), vehicle: distilled water + Tween-80 + alcohol 109 % of control | dose: 6.25 mg/kg/injection, schedule: Q01DX009 (ip), vehicle: distilled water + Tween-80 + alcohol 119 % of control | dose: 12.5 mg/kg/injection, schedule: Q01DX009 (ip), vehicle: distilled water + Tween-80 + alcohol 120 % of control

CC1=NN(c2ccccc2)C(=O)/C1=C(\[O-])c1ccccc1.CC1=NN(c2ccccc2)C(=O)/C1=C(\[O-])c1ccccc1.[Co+2]
inactive: dose: 15.0 mg/kg/injection, schedule: Q01DX005 (ip), vehicle: saline with Tween-80 100 % of control | dose: 30.0 mg/kg/injection, schedule: Q01DX005 (ip), vehicle: saline with Tween-80 102 % of control | [7] 102 % of control and 109 % of control

C=CCN(CC=C)c1ncnc2[nH]ncc12
inactive: [10] 100 % of control | [11] 100 % of control | [12] 100 % of control

Cc1cc2c(cc1C)C(=O)C(N1CCOCC1)CCO2 (stereo not drawn)
inactive: [10] 99 % of control | [11] 99 % of control | [12] 96 % of control

CCCC(=O)OCC1OC(n2cnc3c(=S)nc[nH]c32)C(OC(=O)CCC)C1OC(=O)CCC (stereo not drawn)
inactive: dose: 6.25 mg/kg/injection, schedule: Q01DX009 (ip), vehicle: saline with Tween-80 116 % of control | dose: 12.5 mg/kg/injection, schedule: Q01DX009 (ip), vehicle: saline with Tween-80 112 % of control | dose: 25.0 mg/kg/injection, schedule: Q01DX009 (ip), vehicle: saline with Tween-80 112 % of control | [2] 116 % of control

CCOC(=O)C1(C(=O)OCC)C(C)CC(=O)N1c1ccccc1OC (stereo not drawn)
inactive: [7] 104 % of control | [8] 100 % of control | [9] 95 % of control

COc1ccc(-n2nc3c(ccc4ccccc43)c2NC2CCCCC2)cc1
inactive: [7] 104 % of control | [8] 98 % of control | [9] 102 % of control

C1=NN2C3c4ccccc4C(C1)C32 (stereo not drawn)
inactive: dose: 100.0 mg/kg/injection, schedule: Q01DX001 (ip), vehicle: Klucel (hydroxypropylcellulose) (HPC) 109 % of control | dose: 200.0 mg/kg/injection, schedule: Q01DX001 (ip), vehicle: Klucel (hydroxypropylcellulose) (HPC) 113 % of control
